Experimental data from US6365629B1, “Fatty acid esters of aromatic alcohols and their use in cosmetic formulations” (Alto, Inc., priority 1999, dated 2002).

What was measured:
rabbit eyes = experiment: Eye irritation study; type: in vivo, albino rabbits; conditions: 0.1 ml instilled into one eye, nine rabbits
Method: The test procedure employed is described in the Appraisal of the Safety of Chemicals in Foods, Drugs and Cosmetics, published by the Association of Food and Drug Officials of the United States. Nine normal healthy albino rabbits were used for this study.
Each of the nine animals had 0.1 ml of the test material (benzyl linoleate) instilled into one eye of each test animal. The other eye was untreated and observed as a control. Two seconds after instillation of the test material, a washout was conducted in 3 of the rabbits using 20 ml. of warm water. Four seconds after test material instillation, washout was conducted in 3 additional rabbits using 20 ml. of warm water. All animals were examined frequently during the seven following days.

Skin = experiment: Dermal irritation study (primary irritation of the skin); type: in vivo; conditions: 0.5 ml/patch, 4 patches on each of 6 rabbits
Method: The test procedure employed is described as Local Toxicity, Primary Irritation of the Skin in “Appraisal of the Safety of Chemicals in Foods, Drugs and Cosmetics” published by the Food & Drug Officials of the United States.
The dose to test the response was 0.5 ml/patch with 4 patches on each of 6 rabbits. The results indicated a primary skin irritation index of 2.375.

Rats = experiment: Oral LD50; type: in vivo
Excerpt: The test procedure employed is described in the “Appraisal of the Safety of Chemicals in Foods, Drugs and Cosmetics” published by the Food & Drug Officials of the United States.

Structure (SMILES): CCCCC/C=C\C/C=C\CCCCCCCC(=O)OCc1ccccc1 [Benzyl Linoleate]
- eye irritation classification according to the reference (rabbit eyes): non-irritating
- irritation in rabbit eyes (rabbit eyes; with and without washout, observed seven days): no irritation
- primary skin irritation index (Skin): 2.375
- skin irritation classification in this test system (Skin): moderate irritant
- Oral LD50 (Rats; rat, in vivo, po): 7.0 mL/kg
- gross autopsy findings on dead animals (Rats; rats, oral LD50 study): hemorrhagic lungs, dark livers and spleens, slight hemorrhagic stomachs and intestines and pale kidneys
